Measurements as given in US8242159B2, “1,3-dihydro-5-isobenzofurancarbonitrile derivatives and pharmaceutical composition thereof for the treatment of premature ejaculation” (Dong-A Pharmaceutical. Co., Ltd, priority 2007, dated 2012).

System: Male Wistar rats
Experiment: p-PCA-induced ejaculation in anesthetized rats (ejaculation-delaying effect)
Format: in vivo, rat
Conditions: for Ratio: Number of responding animals/total animal number: 50 mg/kg oral in 1% HPMC, p-PCA 5 mg/kg i.p. 80 min later, observed 30 min; for Latency: Time to display the ejaculatory response: 50 mg/kg oral, p-PCA 5 mg/kg i.p., mean ± standard deviation of responding rats
Method: The compounds prepared in the above examples were evaluated to determine whether they have an effect of delaying ejaculation. The evaluation was carried out using an animal model according to a method described in Yonezawa et al., Life Sci. 2000, 67(25) p 3031-9. Male Wistar rats weighing 240-260 g were used. Each compound was suspended in 1% HPMC, and then administered orally to each animal. After 60 min, the animals were anesthetized and fixed. 20 min later, para-chloroamphetamine (p-PCA) was intraperitoneally administered in a dose of 5 mg/kg in order to induce ejaculation. […] An ejaculatory response was considered to be elicited when rhythmic contraction of bulbocavernosus muscles and semen discharge occurs. Six or more animals were used for each compound. A Fisher's […] test was performed for the comparison of the proportion of responding rats (ejaculated rats) to determine significance of difference between a treatment group and a vehicle control. The time to reach ejaculation was expressed as mean±standard deviation.
Each test compound was administered at a dose of 50 mg/kg. Ejaculation was elicited in all seven animals of a control group.

Structure (SMILES): CN(C)CCCC1(c2cccs2)OCc2cc(C#N)ccc21.Cl (stereo not shown) [Ex. 41, 1-{3-(dimethylamino)propyl}-1-(2-thienyl)-1,3-dihydro-5-isobenzofurancarbonitrile hydrochloride]
- Ratio: Number of responding animals/total animal number: 1/7
- Latency: Time to display the ejaculatory response: 702 s

Structure (SMILES): Cl.N#Cc1ccc2c(c1)COC2(CCn1cccn1)c1ccc(Cl)cc1 (stereo not shown) [Ex. 68, 1-(4-chlorophenyl)-1-{2-(pyrazole-1-yl)ethyl}-1,3-dihydro-5-isobenzofurancarbonitrile hydrochloride]
- Ratio: Number of responding animals/total animal number: 4/9
- Latency: Time to display the ejaculatory response: 908 ± 274 s

Structure (SMILES): Cc1ccc(C2(CCN(C)C)OCc3cc(C#N)ccc32)cc1.Cl (stereo not shown) [Ex. 25, 1-{2-(dimethylamino)ethyl}-1-(4-tolyl)-1,3-dihydro-5-isobenzofurancarbonitrile hydrochloride]
- Ratio: Number of responding animals/total animal number: 4/9
- Latency: Time to display the ejaculatory response: 841 ± 254 s

Structure (SMILES): Cl.N#Cc1ccc2c(c1)COC2(CCCn1ccnc1)c1cccs1 (stereo not shown) [Ex. 46, 1-{3-(imidazole-1-yl)propyl}-1-(2-thienyl)-1,3-dihydro-5-isobenzofurancarbonitrile hydrochloride]
- Ratio: Number of responding animals/total animal number: 0/7

Structure (SMILES): N#Cc1ccc2c(c1)COC2(CCn1cccn1)c1ccc(F)cc1 (stereo not shown) [Ex. 59, 1-(4-fluorophenyl)-1-{2-(pyrazole-1-yl)ethyl}-1,3-dihydro-5-isobenzofurancarbonitrile]
- Ratio: Number of responding animals/total animal number: 3/7
- Latency: Time to display the ejaculatory response: 954 ± 287 s

Structure (SMILES): N#Cc1ccc2c(c1)COC2(CCn1cccn1)c1ccccc1 (stereo not shown) [Ex. 20, 1-phenyl-1-{2-(pyrazole-1-yl)ethyl}-1,3-dihydro-5-isobenzofurancarbonitrile]
- Ratio: Number of responding animals/total animal number: 3/7
- Latency: Time to display the ejaculatory response: 978 ± 378 s

Structure (SMILES): COc1ccc(C2(CCCN(C)C)OCc3cc(C#N)ccc32)cc1.Cl (stereo not shown) [Ex. 3, 1-{3-(dimethylamino)propyl}-1-(4-methoxyphenyl)-1,3-dihydro-5-isobenzofurancarbonitrile hydrochloride]
- Ratio: Number of responding animals/total animal number: 1/6
- Latency: Time to display the ejaculatory response: 1234 s

Structure (SMILES): COc1ccc(C2(CCn3ccnc3)OCc3cc(C#N)ccc32)cc1.Cl (stereo not shown) [Ex. 7, 1-{2-(imidazole-1-yl)ethyl}-1-(4-methoxyphenyl)-1,3-dihydro-5-isobenzofurancarbonitrile hydrochloride]
- Ratio: Number of responding animals/total animal number: 5/9
- Latency: Time to display the ejaculatory response: 963 ± 304 s

Structure (SMILES): Cl.N#Cc1ccc2c(c1)COC2(CCCn1cccn1)c1ccc(Cl)cc1 (stereo not shown) [Ex. 66, 1-(4-chlorophenyl)-1-{3-(pyrazole-1-yl)propyl}-1,3-dihydro-5-isobenzofurancarbonitrile hydrochloride]
- Ratio: Number of responding animals/total animal number: 4/7
- Latency: Time to display the ejaculatory response: 960 ± 350 s

Structure (SMILES): Cl.N#Cc1ccc2c(c1)COC2(CCn1ccnc1)c1cccs1 (stereo not shown) [Ex. 48, 1-{2-(imidazole-1-yl)ethyl}-1-(2-thienyl)-1,3-dihydro-5-isobenzofurancarbonitrile hydrochloride]
- Ratio: Number of responding animals/total animal number: 3/7
- Latency: Time to display the ejaculatory response: 904 ± 321 s

Structure (SMILES): N#Cc1ccc2c(c1)COC2(CCn1cccn1)c1cccs1 (stereo not shown) [Ex. 51, 1-{2-(pyrazole-1-yl)ethyl}-1-(2-thienyl)-1,3-dihydro-5-isobenzofurancarbonitrile]
- Ratio: Number of responding animals/total animal number: 4/7
- Latency: Time to display the ejaculatory response: 1042 ± 451 s

Structure (SMILES): Cc1ccc(C2(CCN(C)C)OCc3cc(C#N)ccc32)cc1 (stereo not shown) [Ex. 24, 1-{2-(dimethylamino)ethyl}-1-(4-tolyl)-1,3-dihydro-5-isobenzofurancarbonitrile]
- Ratio: Number of responding animals/total animal number: 3/7
- Latency: Time to display the ejaculatory response: 1021 ± 367 s

Structure (SMILES): CN(C)CCC1(c2ccccc2)OCc2cc(C#N)ccc21 (stereo not shown) [Ex. 14, 1-{2-(dimethylamino)ethyl}-1-phenyl-1,3-dihydro-5-isobenzofurancarbonitrile]
- Ratio: Number of responding animals/total animal number: 3/7
- Latency: Time to display the ejaculatory response: 1032 ± 451 s

Structure (SMILES): CN(C)CCCC1(c2ccc(N(C)C)cc2)OCc2cc(C#N)ccc21 (stereo not shown) [Ex. 34, 1-(4-dimethylaminophenyl)-1-{3-(dimethylamino)propyl}-1,3-dihydro-5-isobenzofurancarbonitrile]
- Ratio: Number of responding animals/total animal number: 4/9
- Latency: Time to display the ejaculatory response: 807 ± 304 s

Structure (SMILES): N#Cc1ccc2c(c1)COC2(CCn1ccnc1)c1cccs1 (stereo not shown) [Ex. 47, 1-{2-(imidazole-1-yl)ethyl}-1-(2-thienyl)-1,3-dihydro-5-isobenzofurancarbonitrile]
- Ratio: Number of responding animals/total animal number: 4/7
- Latency: Time to display the ejaculatory response: 814 ± 278 s

Structure (SMILES): Cc1ccc(C2(CCCn3ccnc3)OCc3cc(C#N)ccc32)cc1 (stereo not shown) [Ex. 26, 1-{3-(imidazole-1-yl)propyl}-1-(4-tolyl)-1,3-dihydro-5-isobenzofurancarbonitrile]
- Ratio: Number of responding animals/total animal number: 4/7
- Latency: Time to display the ejaculatory response: 904 ± 304 s

Structure (SMILES): N#Cc1ccc2c(c1)COC2(CCn1ccnc1)c1ccc(F)cc1 (stereo not shown) [Ex. 55, 1-(4-fluorophenyl)-1-{2-(imidazole-1-yl)ethyl}-1,3-dihydro-5-isobenzofurancarbonitrile]
- Ratio: Number of responding animals/total animal number: 4/7
- Latency: Time to display the ejaculatory response: 1450 ± 671 s

Structure (SMILES): Cc1ccc(C2(CCn3ccnc3)OCc3cc(C#N)ccc32)cc1 (stereo not shown) [Ex. 28, 1-{2-(imidazole-1-yl)ethyl}-1-(4-tolyl)-1,3-dihydro-5-isobenzofurancarbonitrile]
- Ratio: Number of responding animals/total animal number: 3/7
- Latency: Time to display the ejaculatory response: 734 ± 451 s

Structure (SMILES): CN(C)CCC1(c2cccs2)OCc2cc(C#N)ccc21 (stereo not shown) [Ex. 42, 1-{2-(dimethylamino)ethyl}-1-(2-thienyl)-1,3-dihydro-5-isobenzofurancarbonitrile]
- Ratio: Number of responding animals/total animal number: 4/9
- Latency: Time to display the ejaculatory response: 906 ± 275 s

Structure (SMILES): Cl.N#Cc1ccc2c(c1)COC2(CCn1cccn1)c1cccs1 (stereo not shown) [Ex. 52, 1-{2-(pyrazole-1-yl)ethyl}-1-(2-thienyl)-1,3-dihydro-5-isobenzofurancarbonitrile hydrochloride]
- Ratio: Number of responding animals/total animal number: 3/7
- Latency: Time to display the ejaculatory response: 869 ± 274 s

Structure (SMILES): CN(C)CCC1(c2ccccc2)OCc2cc(C#N)ccc21.Cl (stereo not shown) [Ex. 15, 1-{2-(dimethylamino)ethyl}-1-phenyl-1,3-dihydro-5-isobenzofurancarbonitrile hydrochloride]
- Ratio: Number of responding animals/total animal number: 4/9
- Latency: Time to display the ejaculatory response: 1345 ± 510 s

Structure (SMILES): CN(C)CCCC1(c2cccs2)OCc2cc(C#N)ccc21 (stereo not shown) [Ex. 39, 1-{3-(dimethylamino)propyl}-1-(2-thienyl)-1,3-dihydro-5-isobenzofurancarbonitrile]
- Ratio: Number of responding animals/total animal number: 5/9
- Latency: Time to display the ejaculatory response: 854 ± 287 s
